In patent US11701347B2, “Use of 5-fluoro-4-(4-fluoro-2-methoxyphenyl)-N-{4-[(S-methylsulfonimidoyl)methyl]pyridin-2-yl}pyridin-2-amine for treating diffuse large B-cell lymphoma” (Bayer Aktiengesellschaft, priority 2018, dated 2023):

Key:
DB = experiment: Cell proliferation assay (CellTiter Glo, 72 h); type: cell-based; settings: Homo sapiens, DLBCL GCB subtype
Experimental: (§1) The proliferation of all (DLCBL) cell lines in the presence of different concentrations of Compound A′ or FR compound for 72 h was assessed using CellTiter Glo kits (Promega Corporation, Madison, Wis.). All expressed values were averages of triplicate experiments, and IC50 was calculated using GraphPad Prism 5 (GraphPad Software, San Diego, Calif.) according to the manufacturer's instructions or the MTS software.

HBL1 = experiment: Cell proliferation assay (CellTiter Glo, 72 h); type: cell-based; settings: HBL1, DLBCL ABC subtype
Experimental: as §1

HT = experiment: Cell proliferation assay (CellTiter Glo, 72 h); type: cell-based; settings: Homo sapiens, DLBCL GCB subtype
Experimental: as §1

OCI-LY-19 = experiment: Cell proliferation assay (CellTiter Glo, 72 h); type: cell-based; settings: Homo sapiens, OCI-LY19, OCI-LY-19, DLBCL GCB subtype
Experimental: as §1

OCI-LY-3 = experiment: Cell proliferation assay (CellTiter Glo, 72 h); type: cell-based; settings: Homo sapiens, OCI-Ly3, OCI-LY-3, DLBCL ABC subtype
Experimental: as §1

SU-DHL-10 = experiment: Cell proliferation assay (CellTiter Glo, 72 h); type: cell-based; settings: Homo sapiens, SU-DHL10, SU-DHL-10, DLBCL GCB subtype
Experimental: as §1

SU-DHL-4 = experiment: Cell proliferation assay (CellTiter Glo, 72 h); type: cell-based; settings: Homo sapiens, SU-DHL-4, DLBCL GCB subtype
Experimental: as §1

SU-DHL-5 = experiment: Cell proliferation assay (CellTiter Glo, 72 h); type: cell-based; settings: Homo sapiens, SU-DHL-5, DLBCL GCB subtype
Experimental: as §1

SU-DHL-6 = experiment: Cell proliferation assay (CellTiter Glo, 72 h); type: cell-based; settings: Homo sapiens, SU-DHL-6, DLBCL GCB subtype
Experimental: as §1

SU-DHL-8 = experiment: Cell proliferation assay (CellTiter Glo, 72 h); type: cell-based; settings: Homo sapiens, SU-DHL-8, DLBCL GCB subtype
Experimental: as §1

TMD8 = experiment: Cell proliferation assay (CellTiter Glo, 72 h); type: cell-based; settings: Homo sapiens, TMD8, DLBCL ABC subtype
Experimental: as §1

[1] = test system: subcutaneous DLBCL OCI-LY-3 xenografts; experiment: In vivo efficacy in DLBCL OCI-LY-3 xenograft model; design: species or system female SCID mice; settings: 10 mg/kg q7d iv, 14 days, end of experiment
Experimental: (§2) The aim of the present experiments was to assess the in vivo efficacy and tolerability of Compound A′ in monotherapy in the DLBCL OCI-LY-3 tumour model subcutaneously implanted in SCID mice. In vivo efficacy was determined in female SCID mice bearing subcutaneous DLBCL OCI-LY-3 xenografts. Compound A′ was assessed at one dose level in monotherapy. Anti-tumour activity and tolerability of the treated group was assessed using the vehicle control group as a reference.
(§3) At randomisation, the area of growing tumours was initially determined Animals bearing one tumour of an area of 25-35 mm2 were distributed in experimental groups according to the study protocol. The day of randomisation is designated as day 0 of an experiment Animals either received Compound A′ (formulated in 30% PEG400/10% Ethanol/60%water), at a dose of 10 mg/kg q7d intravenously or vehicle control (qd po) for a period of 14 days.
At the end of the experiment Treatment to Control ratios (T/C) were calculated based on the mean tumor area and the mean tumor weight in the Compound A′ treatment group and in the vehicle control group.

[2] = test system: subcutaneous DLBCL SU-DHL-10 xenografts; experiment: In vivo efficacy in DLBCL SU-DHL-10 xenograft model; design: species or system female SCID mice; settings: 15 mg/kg q7d iv, 16 days, end of experiment
Experimental: (§4) The aim of the present experiments was to assess the in vivo efficacy and tolerability of Compound A′ in monotherapy in the DLBCL SU-DHL-10 tumour model subcutaneously implanted in SCID mice. In vivo efficacy was determined in female SCID mice bearing subcutaneous DLBCL SU-DHL-10 xenografts. Compound A′ was assessed at one dose level in monotherapy. Anti-tumour activity and tolerability of the treated group was assessed using the vehicle control group as a reference. […] At randomisation, the area of growing tumours was initially determined Animals bearing one tumour of an area of 25-35 mm2 were distributed in experimental groups according to the study protocol. The day of randomisation is designated as day 0 of an experiment Animals either received Compound A′ (formulated in 30% PEG400/10% Ethanol/60%water), at a dose of 15 mg/kg q7d intravenously or vehicle control (q7d iv) for a period of 16 days.
(§5) The maximum body weight loss was −9% in Compound A′ group compared to −4% in the vehicle group indicating moderate tolerability of Compound A′ at a dose of 15 mg/kg q7d iv. At the end of the experiment the Treatment to Control ratios (T/C) was calculated based on the mean tumor area in the Compound A′ treatment group and in the vehicle control group.

[3] = Tolerability in OCI-LY-3 xenograft study; type: in vivo; settings: 10 mg/kg q7d iv, 14 days
Experimental: as §2, §3

[4] = Tolerability in SU-DHL-10 xenograft study; type: in vivo, female SCID mice; settings: 15 mg/kg q7d iv, 16 days
Experimental: as §4, §5

Row | SMILES | IC50 (DB) [nM] | IC50 (HBL1) [nM] | IC50 (HT) [nM] | IC50 (OCI-LY-19) [nM] | IC50 (OCI-LY-3) [nM] | IC50 (SU-DHL-10) [nM] | IC50 (SU-DHL-4) [nM] | IC50 (SU-DHL-5) [nM] | IC50 (SU-DHL-6) [nM] | IC50 (SU-DHL-8) [nM] | IC50 (TMD8) [nM] | T/C by area (Treatment to Control ratio, mean tumor area) [1] | T/C by weight (Treatment to Control ratio, mean tumor weight) [1] | T/C by area (Treatment to Control ratio, mean tumor area) [2] | Fatal toxicities [3] | maximum body weight loss [3] [%] | maximum body weight loss [4] [%]
1 | COc1cc(F)ccc1-c1cc(Nc2cc(CS(C)(=N)=O)ccn2)ncc1F (single isomer, unassigned; (+)) [Compound A′, (+)-5-Fluoro-4-(4-fluoro-2-methoxyphenyl)-N-{4-[(S-methylsulfonimidoyl)methyl]pyridin-2-yl}pyridin-2-amine] | 88 | 196 | 81 | 39 | 83 | 129 | 90 | 105 | 37 | 93 | 100 | 0.29 | 0.24 | 0.02 | did not occur | −6 | −9
2 | COc1cc(F)ccc1-c1ncnc(Nc2cccc(CS(C)(=N)=O)c2)n1 (centres unmarked) [FR compound, reference compound] | 570 | 540 | 710 | 480 | 340 | 600 | 170 |  | 360 | 610 |  |  |  |  |  |  | 
